Patent US11440870B2, “Cannabidiolic acid esters compositions and uses thereof” (Yissum Research Development Company of the Hebrew …, priority 2017, dated 2022)

Experiments:
[1] = test system: LiCl-induced conditioned gaping (acute nausea) in rats; details: i.p.; literature (Bolognini et al., 2013; Rock et al.); cited from earlier work
[2] = test system: anxiety-like responding in rats; details: i.p.; literature (Rock et al., 2017); cited from earlier work
[3] = test system: locomotor activity of rats; assay: Locomotor activity test after the anticipatory nausea test; assay type: in vivo, male Sprague-Dawley rats; details: 0.01 or 0.1 μg·kg−1 i.p.; 15 min test; ANOVA F(6, 39)=0.9, P>0.05
Procedure: For in vivo experiment 2, contextually elicited conditioned gaping (a model of anticipatory nausea) was measured using a distinctive conditioning chamber made of opaque black Plexiglass (22.5×26×20 cm) with an opaque lid that sat on a table with a clear glass top. A mirror beneath the chamber at a 45° angle facilitated viewing of the ventral surface of the rat to observe orofacial responses. The conditioning chamber was in a dark room next to a 25 W light source. A video camera that was fire-wired into a computer was focused on the mirror to record each rat's orofacial reactions during the 5 min test trial. The video tapes were later scored using ‘The Observer’ software. […]
To compare the potential of HU-580 and CBDA to reduce anticipatory nausea, the contextually elicited conditioned gaping paradigm was used (e.g. Limebeer et al., 2010; Rock et al., 2014). […] Pretreatments were injected 45 min before the rats were given an saline injection (20 mL·kg^−1 i.p.) and individually placed in the conditioning (contextual) chamber for 5 min, and orofacial responses were video recorded. […] The video tapes from the test trial were scored by an observer blind to the experimental conditions using ‘The Observer’ for the behaviors of gaping (large openings of the mouth and jaw, with lower incisors exposed). […]

[4] = Stability on storage at 4° C.; details: stored at 4° C. (21 days for the comparison)

| Structure (SMILES) | Dose as low as which anti-nausea effects are induced (vomiting in Suncus murinus, conditioned gaping in rats) [1] | Doses as low as which anxiolytic-like effects are produced under conditions of high stress [2] | Distance moved in locomotor activity test [3] | Stability when stored [4] |
| --- | --- | --- | --- | --- |
| C=C(C)[C@@H]1CCC(C)=C[C@H]1c1c(O)cc(CCCCC)c(C(=O)O)c1O [CBDA, Cannabidiolic acid] | 1 µg/kg | 0.1 µg/kg | no significant effect on distance moved | – |
| C=C(C)[C@@H]1CCC(C)=C[C@H]1c1c(O)cc(CCCCC)c(C(=O)OC)c1O [HU-580, Cannabidiolic Acid Methyl Ester] | – | – | no significant effect on distance moved | more stable than CBDA |
